Source: paper PMC6154583, “Optimized 4,5-Diarylimidazoles as Potent/Selective Inhibitors of Protein Kinase CK1δ and Their Structural Relation to p38α MAPK” (Molecules : A Journal of Synthetic Chemistry and Natural …, 2017)

Experiments:
Assay in all cases: ProQinase 33PanQinase selectivity profiling
Assay type in all cases: biochemical
[1] = molecular target: JNK2 (Homo sapiens, UniProt P45984); details: 100 nM, relative to control, read-out: residual activity
[2] = molecular target: T1, ACK1 (Homo sapiens, UniProt Q07912); details: 100 nM, relative to control, read-out: Residual activity (%)
T1 construct: purchased ProQinase GmbH (Freiburg, Germany)

[3] = molecular target: EPHA2 (Homo sapiens, UniProt P29317); details: 100 nM, relative to control, read-out: Residual activity (%)
[4] = molecular target: T2, CDC42BPB (Homo sapiens, UniProt Q9Y5S2); details: 100 nM, relative to control, read-out: Residual activity (%)
T2 construct: purchased ProQinase GmbH

[5] = molecular target: CDK6/CycD1 (Homo sapiens, UniProt Q00534); details: 100 nM, relative to control, read-out: Residual activity (%)
[6] = molecular target: Aurora-B (Homo sapiens, UniProt Q96GD4); details: 100 nM, relative to control, read-out: Residual activity (%)
[7] = molecular target: CDK8/CycC (Homo sapiens, UniProt P49336); details: 100 nM, relative to control, read-out: Residual activity (%)
[8] = molecular target: CDK3/CycE1 (Homo sapiens, UniProt Q00526); details: 100 nM, relative to control, read-out: Residual activity (%)
[9] = molecular target: CK1-delta (Homo sapiens, UniProt P48730); details: 100 nM, relative to control, read-out: Residual activity (%)
[10] = molecular target: CAMK4 (Homo sapiens, UniProt Q16566); details: 100 nM, relative to control, read-out: Residual activity (%)
[11] = molecular target: DDR2 (Homo sapiens, UniProt Q16832); details: 100 nM, relative to control, read-out: Residual activity (%)
[12] = molecular target: RIPK2 (Homo sapiens, UniProt O43353); details: 100 nM, relative to control, read-out: residual activity
[13] = molecular target: EGF-R (Homo sapiens, UniProt P00533); details: 100 nM, relative to control, read-out: Residual activity (%)
[14] = molecular target: T3, BRK (Homo sapiens, UniProt Q13882); details: 100 nM, relative to control, read-out: Residual activity (%)
T3 construct: purchased ProQinase GmbH
T3 sequence (Q13882 whole entry): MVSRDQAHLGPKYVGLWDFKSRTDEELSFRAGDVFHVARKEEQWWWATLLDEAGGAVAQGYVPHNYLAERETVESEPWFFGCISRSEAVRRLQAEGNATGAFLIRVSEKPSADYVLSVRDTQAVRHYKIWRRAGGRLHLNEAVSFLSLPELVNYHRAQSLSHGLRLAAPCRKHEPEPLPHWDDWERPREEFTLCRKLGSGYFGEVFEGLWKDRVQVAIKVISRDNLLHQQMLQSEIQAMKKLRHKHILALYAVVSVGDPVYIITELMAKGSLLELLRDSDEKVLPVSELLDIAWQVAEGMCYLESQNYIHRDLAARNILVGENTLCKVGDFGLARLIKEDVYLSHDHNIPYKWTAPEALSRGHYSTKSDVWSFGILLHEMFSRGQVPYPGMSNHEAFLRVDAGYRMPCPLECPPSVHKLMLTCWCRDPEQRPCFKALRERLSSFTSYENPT

[15] = molecular target: T4, ACV-R1B (Homo sapiens, UniProt P36896); details: 100 nM, relative to control, read-out: Residual activity (%)
T4 construct: purchased ProQinase GmbH (Freiburg, Germany)
T4 sequence (P36896 24-505): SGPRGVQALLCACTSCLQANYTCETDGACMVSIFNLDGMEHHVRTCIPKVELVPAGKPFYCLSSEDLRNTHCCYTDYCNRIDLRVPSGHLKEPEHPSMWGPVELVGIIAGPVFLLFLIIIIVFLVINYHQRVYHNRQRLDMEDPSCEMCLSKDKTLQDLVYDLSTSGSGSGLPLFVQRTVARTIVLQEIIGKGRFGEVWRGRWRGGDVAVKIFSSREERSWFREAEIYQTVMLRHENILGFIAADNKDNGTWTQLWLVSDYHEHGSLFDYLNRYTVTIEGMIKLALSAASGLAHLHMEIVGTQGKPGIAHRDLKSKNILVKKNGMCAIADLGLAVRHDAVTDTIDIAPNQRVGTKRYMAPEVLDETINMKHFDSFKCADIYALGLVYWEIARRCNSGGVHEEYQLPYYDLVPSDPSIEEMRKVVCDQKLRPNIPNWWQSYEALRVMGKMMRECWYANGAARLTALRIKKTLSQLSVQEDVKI

[16] = molecular target: CK1-gamma1 (Homo sapiens, UniProt Q9HCP0); details: 100 nM, relative to control
Sequence of CK1-gamma1 (Q9HCP0 whole entry): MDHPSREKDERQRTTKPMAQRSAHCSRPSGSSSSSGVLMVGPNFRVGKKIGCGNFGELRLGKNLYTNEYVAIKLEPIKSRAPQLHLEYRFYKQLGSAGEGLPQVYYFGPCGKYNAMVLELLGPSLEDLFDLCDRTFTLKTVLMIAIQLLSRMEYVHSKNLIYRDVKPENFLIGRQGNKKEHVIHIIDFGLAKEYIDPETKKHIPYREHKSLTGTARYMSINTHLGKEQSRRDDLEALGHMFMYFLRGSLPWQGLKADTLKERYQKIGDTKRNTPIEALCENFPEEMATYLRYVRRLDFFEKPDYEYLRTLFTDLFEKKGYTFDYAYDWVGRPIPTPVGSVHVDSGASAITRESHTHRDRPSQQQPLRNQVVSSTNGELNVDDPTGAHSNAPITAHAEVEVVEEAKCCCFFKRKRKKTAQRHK

[17] = molecular target: LCK (Homo sapiens, UniProt P06239); details: 100 nM, relative to control, read-out: residual activity
[18] = molecular target: ABL2 (Homo sapiens, UniProt P42684); details: 100 nM, relative to control, read-out: Residual activity (%)
Sequence of ABL2 (P42684 whole entry): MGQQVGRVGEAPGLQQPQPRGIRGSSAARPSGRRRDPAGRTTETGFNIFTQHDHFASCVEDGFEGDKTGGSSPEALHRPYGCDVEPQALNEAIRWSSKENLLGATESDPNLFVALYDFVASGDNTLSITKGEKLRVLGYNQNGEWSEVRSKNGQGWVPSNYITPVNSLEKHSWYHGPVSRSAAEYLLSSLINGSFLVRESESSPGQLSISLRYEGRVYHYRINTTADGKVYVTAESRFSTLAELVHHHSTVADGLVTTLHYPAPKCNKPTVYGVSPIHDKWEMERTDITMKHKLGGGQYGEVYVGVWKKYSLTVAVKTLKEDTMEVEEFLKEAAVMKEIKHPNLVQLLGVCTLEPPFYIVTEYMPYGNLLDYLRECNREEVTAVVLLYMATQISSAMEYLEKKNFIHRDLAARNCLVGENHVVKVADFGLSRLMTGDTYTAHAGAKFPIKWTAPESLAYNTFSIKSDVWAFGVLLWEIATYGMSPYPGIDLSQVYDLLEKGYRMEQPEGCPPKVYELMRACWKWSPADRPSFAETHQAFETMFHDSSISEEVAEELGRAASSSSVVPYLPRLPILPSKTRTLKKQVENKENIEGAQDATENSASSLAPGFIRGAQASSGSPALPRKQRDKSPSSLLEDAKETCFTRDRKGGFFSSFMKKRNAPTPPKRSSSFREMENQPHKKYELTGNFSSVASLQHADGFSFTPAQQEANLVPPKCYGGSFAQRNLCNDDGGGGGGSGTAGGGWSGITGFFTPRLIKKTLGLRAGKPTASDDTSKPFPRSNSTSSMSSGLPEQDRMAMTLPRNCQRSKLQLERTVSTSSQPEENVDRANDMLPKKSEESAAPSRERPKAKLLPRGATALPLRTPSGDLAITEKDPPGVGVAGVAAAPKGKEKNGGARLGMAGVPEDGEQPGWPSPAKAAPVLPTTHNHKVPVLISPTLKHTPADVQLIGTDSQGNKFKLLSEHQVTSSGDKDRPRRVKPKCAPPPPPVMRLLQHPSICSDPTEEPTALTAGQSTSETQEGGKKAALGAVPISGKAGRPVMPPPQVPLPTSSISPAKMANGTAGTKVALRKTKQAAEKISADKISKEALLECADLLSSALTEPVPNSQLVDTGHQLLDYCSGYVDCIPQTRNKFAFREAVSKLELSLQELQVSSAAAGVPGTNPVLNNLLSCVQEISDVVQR

[19] = molecular target: p38α MAPK (Homo sapiens, UniProt Q16539); details: 100 nM, relative to control, read-out: residual activity
Sequence of p38α MAPK (Q16539 whole entry): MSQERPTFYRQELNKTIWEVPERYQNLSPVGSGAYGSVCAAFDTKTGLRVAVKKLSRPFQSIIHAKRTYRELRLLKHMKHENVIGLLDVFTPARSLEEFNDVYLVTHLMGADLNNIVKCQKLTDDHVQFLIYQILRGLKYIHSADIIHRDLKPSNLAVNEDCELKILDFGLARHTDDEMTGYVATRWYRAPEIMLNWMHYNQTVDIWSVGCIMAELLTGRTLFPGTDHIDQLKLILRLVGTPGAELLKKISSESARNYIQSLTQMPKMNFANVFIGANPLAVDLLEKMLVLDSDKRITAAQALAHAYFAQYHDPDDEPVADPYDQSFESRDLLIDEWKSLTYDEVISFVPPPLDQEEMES

[20] = molecular target: B-RAF (Homo sapiens, UniProt P15056); details: 100 nM, relative to control, read-out: Residual activity (%)
[21] = molecular target: DCAMKL2 (Homo sapiens, UniProt Q8N568); details: 100 nM, relative to control, read-out: Residual activity (%)
[22] = molecular target: CHK1 (Homo sapiens, UniProt O14757); details: 100 nM, relative to control, read-out: Residual activity (%)
Sequence of CHK1 (O14757 whole entry): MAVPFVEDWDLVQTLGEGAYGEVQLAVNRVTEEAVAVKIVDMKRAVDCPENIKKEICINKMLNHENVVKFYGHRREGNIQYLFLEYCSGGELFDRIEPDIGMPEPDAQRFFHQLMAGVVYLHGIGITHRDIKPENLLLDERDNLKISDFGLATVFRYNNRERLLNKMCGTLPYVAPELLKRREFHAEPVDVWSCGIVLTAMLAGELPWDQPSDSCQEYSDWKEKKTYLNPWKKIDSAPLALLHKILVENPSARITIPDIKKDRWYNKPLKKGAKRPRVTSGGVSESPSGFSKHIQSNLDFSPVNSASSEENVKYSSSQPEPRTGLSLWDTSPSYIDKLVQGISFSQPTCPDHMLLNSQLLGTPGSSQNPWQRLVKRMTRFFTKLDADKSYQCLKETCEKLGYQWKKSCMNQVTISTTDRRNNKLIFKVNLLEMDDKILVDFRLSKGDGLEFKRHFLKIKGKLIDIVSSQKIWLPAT

[23] = molecular target: BTK (Homo sapiens, UniProt Q06187); details: 100 nM, relative to control, read-out: Residual activity (%)
[24] = molecular target: CSK (Homo sapiens, UniProt P41240); details: 100 nM, relative to control, read-out: Residual activity (%)
Sequence of CSK (P41240 whole entry): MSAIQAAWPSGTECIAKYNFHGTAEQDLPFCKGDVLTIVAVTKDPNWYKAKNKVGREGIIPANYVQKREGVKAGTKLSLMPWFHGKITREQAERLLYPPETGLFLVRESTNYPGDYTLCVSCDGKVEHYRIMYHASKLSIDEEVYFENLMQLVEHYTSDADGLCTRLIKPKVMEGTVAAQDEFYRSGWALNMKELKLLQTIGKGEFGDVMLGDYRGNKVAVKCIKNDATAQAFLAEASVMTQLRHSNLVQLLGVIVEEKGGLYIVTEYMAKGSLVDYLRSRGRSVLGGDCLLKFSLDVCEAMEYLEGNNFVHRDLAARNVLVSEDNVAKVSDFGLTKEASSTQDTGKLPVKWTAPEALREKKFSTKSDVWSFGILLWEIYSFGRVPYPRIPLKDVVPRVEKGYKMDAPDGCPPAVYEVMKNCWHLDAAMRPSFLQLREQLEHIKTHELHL

[25] = molecular target: Aurora-A (Homo sapiens, UniProt O14965); details: 100 nM, relative to control, read-out: Residual activity (%)
Sequence of Aurora-A (O14965 whole entry): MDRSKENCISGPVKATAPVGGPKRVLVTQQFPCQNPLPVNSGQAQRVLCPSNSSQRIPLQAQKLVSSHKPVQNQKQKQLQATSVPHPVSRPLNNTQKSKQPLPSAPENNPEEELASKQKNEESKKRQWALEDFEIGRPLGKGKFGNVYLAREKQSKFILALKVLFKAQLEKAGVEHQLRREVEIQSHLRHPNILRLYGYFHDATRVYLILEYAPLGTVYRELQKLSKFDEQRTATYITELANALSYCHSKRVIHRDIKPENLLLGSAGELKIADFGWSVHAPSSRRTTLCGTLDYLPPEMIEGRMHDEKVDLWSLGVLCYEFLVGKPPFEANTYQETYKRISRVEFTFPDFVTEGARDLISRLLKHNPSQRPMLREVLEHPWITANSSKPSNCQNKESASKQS

[26] = molecular target: CAMK2B (Homo sapiens, UniProt Q13554); details: 100 nM, relative to control, read-out: Residual activity (%)
Sequence of CAMK2B (Q13554 whole entry): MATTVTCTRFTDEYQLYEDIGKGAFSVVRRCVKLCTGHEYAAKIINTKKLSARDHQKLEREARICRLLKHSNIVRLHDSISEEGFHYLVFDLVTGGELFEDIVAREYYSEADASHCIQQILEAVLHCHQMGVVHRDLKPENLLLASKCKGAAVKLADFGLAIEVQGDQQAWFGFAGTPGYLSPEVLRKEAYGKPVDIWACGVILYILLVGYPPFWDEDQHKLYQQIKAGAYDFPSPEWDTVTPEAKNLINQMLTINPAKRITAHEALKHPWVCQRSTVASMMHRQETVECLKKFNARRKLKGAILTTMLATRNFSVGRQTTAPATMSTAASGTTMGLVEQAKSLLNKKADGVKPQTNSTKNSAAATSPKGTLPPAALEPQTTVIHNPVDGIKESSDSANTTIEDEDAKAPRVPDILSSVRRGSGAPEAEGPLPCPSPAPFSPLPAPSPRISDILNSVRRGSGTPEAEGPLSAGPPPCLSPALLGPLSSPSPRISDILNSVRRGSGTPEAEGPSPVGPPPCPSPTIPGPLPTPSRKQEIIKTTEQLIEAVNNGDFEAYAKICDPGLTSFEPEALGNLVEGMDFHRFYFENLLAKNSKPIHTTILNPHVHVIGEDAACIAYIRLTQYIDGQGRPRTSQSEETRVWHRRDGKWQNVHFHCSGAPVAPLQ

[27] = molecular target: ACV-R1 (Homo sapiens, UniProt Q04771); details: 100 nM, relative to control, read-out: Residual activity (%)
[28] = molecular target: T5, ACV-R2A (Homo sapiens, UniProt P27037); details: 100 nM, relative to control, read-out: Residual activity (%)
T5 construct: purchased ProQinase GmbH (Freiburg, Germany)

[29] = molecular target: CDK6/CycD3 (Homo sapiens, UniProt Q00534); details: 100 nM, relative to control, read-out: Residual activity (%)
[30] = molecular target: CDK7/CycH/MAT1 (Homo sapiens, UniProt P50613); details: 100 nM, relative to control, read-out: Residual activity (%)

COc1ccc(OC)c(CCC(=O)Nc2cc(-c3nc(SC)[nH]c3-c3ccc(F)cc3)ccn2)c1 [11b, 3-(2,5-Dimethoxyphenyl)-N-(4-(5-(4-fluorophenyl)-2-(methylthio)-1H-imidazol-4-yl)-pyridin-2-yl)-propanamide]
remaining activity at 0.1 µM [1]: 21%
remaining activity at 0.1 µM [2]: 96%
remaining activity at 0.1 µM [3]: 95%
remaining activity at 0.1 µM [4]: 88%
remaining activity at 0.1 µM [5]: 105%
remaining activity at 0.1 µM [6]: 92%
remaining activity at 0.1 µM [7]: 90%
remaining activity at 0.1 µM [8]: 98%
remaining activity at 0.1 µM [9]: 3%
remaining activity at 0.1 µM [10]: 95%
remaining activity at 0.1 µM [11]: 101%
remaining activity at 0.1 µM [12]: 45%
remaining activity at 0.1 µM [13]: 113%
remaining activity at 0.1 µM [14]: 98%
remaining activity at 0.1 µM [15]: 101%
Residual activity (%) [16]: unaffected
remaining activity at 0.1 µM ([16]; read-out: Residual activity (%)): 100%
remaining activity at 0.1 µM [17]: 26%
remaining activity at 0.1 µM [18]: 91%
remaining activity at 0.1 µM [19]: 22%
remaining activity at 0.1 µM [20]: 91%
remaining activity at 0.1 µM [21]: 94%
remaining activity at 0.1 µM [22]: 92%
remaining activity at 0.1 µM [23]: 105%
remaining activity at 0.1 µM [24]: 101%
remaining activity at 0.1 µM [25]: 93%
remaining activity at 0.1 µM [26]: 103%
remaining activity at 0.1 µM [27]: 95%
remaining activity at 0.1 µM [28]: 98%
remaining activity at 0.1 µM [29]: 97%
remaining activity at 0.1 µM [30]: 102%
